According to US20260248924A1, “MITOCHONDRIA-TARGETED AGENTS FOR DISEASE PREVENTION AND TREATMENT” (THE METHODIST HOSPITAL, priority 2023, published 2026):
“Also recorded” adds a separate entry of the source.

What was measured:
[1] = system: lung adenocarcinoma (LUAD) cell lines (H2030-BrM3, LKR-13); test: Cellular proliferation assay (IncuCyte cell confluence), PEITC vs Mito-PEITC; type: cell-based; conditions: Homo sapiens, real-time cell confluence, both LUAD cell lines tested, read-out: IC50, inhibition of proliferation
[2] = system: B(a)P-induced lung tumors; test: B(a)P-induced lung tumorigenesis, post-initiation model; type: in vivo, A/J mice; conditions: 100 μmol/kg, 5 days/week, 20 weeks
[3] = system: VC-induced lung tumors; test: VC-induced lung tumorigenesis study; type: in vivo, A/J mice; conditions: 100 μmol/kg, oral gavage 5 days/week for 20 weeks
Procedure: Six-week-old female A/J mice were injected with VC (single i.p. dose, 16 mg/kg). […] Treatments were administered by oral gavage five times per week. After 18 weeks of treatment, the mice were euthanized. […] The rest of lungs were evaluated under a dissecting microscope to obtain the surface tumor count and individual tumor diameter. Tumor volume was calculated based on the formula V=4πr(3)/3. Tumor load (the total tumor volume in each mouse) was calculated from the sum of all tumors.

[4] = system: H2030-BrM3 cells; test: Orthotopic model of lung adenocarcinoma; type: in vivo, nude mice; conditions: 4 μmol/kg, oral gavage 5 days/week for 3 weeks
Procedure: An orthotopic model of lung adenocarcinoma cells (H2030-BrM3 cells) in athymic nude mice was used. Nude mice (5 weeks old) were anesthetized with isoflurane and placed in the right lateral decubitus position. A total of 1×10^6 H2030-BrM3 cells in […] of growth factor reduced Matrigel in 50 μL of RPMI1640 medium were injected into the left lung through the left rib cage. […] Tumor growth and metastases were monitored over time by bioluminescence (after injection of D-luciferin, 150 μg/g) using Lumina IVIS 100 imager (Perkin Elmer, Waltham, MA). Mice were euthanized on day 28.
A study using an orthotopic model of lung adenocarcinoma in nude mice was conducted. H2030-BrM3 cells were injected into the lung. […] PEITC was not effective, as expected, because the applied dose (4 μmol/kg) is below the levels typically used in xenograft studies (Zhang, Q., et al., Mol Carcinog, 2020. 59(6): p. 590-603).

[5] = system: H2030-BrM3 cells; test: Lung cancer brain metastasis model (left ventricle injection); type: in vivo, NOD/SCID mice; conditions: PEITC at 25-fold higher dose (printed 100 mol/kg), oral gavage
Procedure: Mice were imaged for luciferase expression as a marker of tumor growth, using an IVIS 100 imaging system, over five weeks after cell injection. Regions of interest were defined manually, and LivingImage and Igor software was used to determine total photon flux.
For the brain metastasis studies, female NOD/SCID mice (age 5 weeks) were used. H2030-BrM3 cells (2×10^5) were suspended in PBS (0.1 mL) and injected into the left ventricle under ultrasound guidance (ECHO 707, GE, Milwaukee, WI). […] Mice were treated by oral gavage 5 days per week and metastases were monitored periodically by bioluminescence. Mice were euthanized at day 28 after the arterial injection of tumor cells.

[6] = system: lung tumorigenesis induced by benzo(a)pyrene; conditions: in vivo; cited from earlier work
[7] = rat, in vivo; cited from earlier work
[8] = human, in vivo; cited from earlier work
[9] = in vivo; cited from earlier work

S=C=NCCc1ccccc1 [PEITC, phenethyl isothiocyanate]
IC50 [1]: 12 µM | B(a)P-induced lung tumor development [2]: ineffective | VC-induced lung tumor development [3]: ineffective | effect on orthotopic lung tumor growth [4]: not effective | effect on lung cancer brain metastasis [5]: ineffective; also recorded: does not inhibit brain metastasis | efficacy against lung tumorigenesis induced by benzo(a)pyrene [6]: not effective | toxicity for female rats [7]: extremely low toxicity | safety in clinical trial [8]: safe | blood-brain barrier passage [9]: crosses the blood-brain barrier | plasma protein binding [9]: high
